Experimental data from patent US8129361B2, “Amine compound and pharmaceutical use thereof” (Mitsubishi Tanabe Pharma Corporation, priority 2007, dated 2012).

Key:
Type in all cases: in vivo
[1] = tested on: peripheral blood lymphocyte number; test: Peripheral blood lymphocyte number decreasing action in rat; details: male F344 rats, oral, 24 hr after administration, read-out: ED50 (dose necessary for reducing the lymphocyte count of the vehicle group (100%) by 50%)
[2] = tested on: peripheral blood lymphocyte number; test: Peripheral blood lymphocyte number decreasing action in mouse; details: ip, male BALB/cAnNCrj mice, intraperitoneal, 24 hr after administration, read-out: ED50 (dose necessary for reducing the lymphocyte count of the vehicle group (100%) by 50%)
[3] = tested on: heart rate in rat under anesthesia; test: Action on heart rate in rat under anesthesia (intravenous administration); details: anesthetized male Sprague-Dawley (IGS) rats, intravenous over 30 sec, up to the dose of 0.03 mg/kg body weight, 1-15 minutes after administration
Experimental: Action on Heart Rate in Rat Under Anesthesia
Male Sprague-Dawley (IGS) rats were anesthetized by intraperitoneal administration of Nembutal (manufactured by Dainippon Sumitomo Pharma Co., Ltd.), and fixed at the dorsal position. Electrodes were mounted on four limbs, and the electrocardiogram was measured according to Standard Limb Lead II using an electrocardiogram amplifier (AC-601G, manufactured by NIHON KOHDEN CORPORATION). With the electrocardiographic wave as a trigger, the heart rate was measured with an instantaneous heart rate unit (AT-601G, manufactured by NIHON KOHDEN CORPORATION). The test compound was dissolved in 20% cyclodextrin (manufactured by Nihon Shokuhin Kako Co., Ltd.) and intravenously administered at a dose of 0.001-10 mg/kg body weight over 30 sec. The heart rate was measured before administration, and 1, 2, 3, 4, 5, 10 and 15 minutes after the administration.

| SMILES | ED50 [1] [mg/kg] | ED50 [2] [mg/kg] | Effect on heart rate as compared to the value before administration [3] |
| --- | --- | --- | --- |
| C[C@](N)(CO)CCc1ccc(OCCCc2ccc(C(F)(F)F)cc2)c(C(F)(F)F)c1.Cl [Compound 29-1, (R)-2-amino-2-methyl-4-{3-trifluoromethyl-4-[3-(4-trifluoromethylphenyl)propoxy]phenyl}butanol hydrochloride] | 0.03 | – | – |
| CC[C@](N)(CO)CCc1ccc(OCCCc2ccc(C(F)(F)F)cc2)c(C(F)(F)F)c1.Cl [Compound 32-1, (R)-2-amino-2-ethyl-4-{3-trifluoromethyl-4-[3-(4-trifluoromethylphenyl)propoxy]phenyl}butanol hydrochloride] | 0.02 | – | – |
| Cl.NC(CO)(CO)CCc1ccc(OCCCc2cccc(OC(F)(F)F)c2)c(C(F)(F)F)c1 [Compound 58-5, 2-amino-2-(2-{4-[3-(3-trifluoromethoxyphenyl)propoxy]-3-trifluoromethylphenyl}ethyl)propane-1,3-diol hydrochloride] | 0.07 | 0.06 | – |
| Cl.NC(CO)(CO)CCc1ccc(OCCCc2ccc(C(F)(F)F)c(F)c2)c(C(F)(F)F)c1 [Compound 68-4, 2-amino-2-(2-{4-[3-(3-fluoro-4-trifluoromethylphenyl)propoxy]-3-trifluoromethylphenyl}ethyl)propane-1,3-diol hydrochloride] | 0.09 | 0.04 | – |
| Cl.NC(CO)(CO)CCc1ccc(OC/C=C/c2cccc(Cl)c2)c(C(F)(F)F)c1 [Compound 89-2, 2-amino-2-(2-{4-[3-(3-chlorophenyl)allyloxy]-3-trifluoromethylphenyl}ethyl)propane-1,3-diol hydrochloride] | 0.06 | 0.04 | – |
| Cl.NC(/C=C/c1ccc(OCCCc2ccccc2)c(C(F)(F)F)c1)(CO)CO [Compound 100-2, (E)-2-amino-2-{2-[4-(3-phenylpropoxy)-3-trifluoromethylphenyl]vinyl}propane-1,3-diol hydrochloride] | 0.07 | 0.07 | – |
| Cl.NC(/C=C/c1ccc(OCCCc2ccccc2F)c(C(F)(F)F)c1)(CO)CO [Compound 101-2, (E)-2-amino-2-(2-{4-[3-(2-fluorophenyl)propoxy]-3-trifluoromethylphenyl}vinyl)propane-1,3-diol hydrochloride] | – | 0.1 | – |
| C[C@@](N)(CCc1ccc(OCCCc2ccc(C(F)(F)F)cc2)c(C(F)(F)F)c1)COP(=O)(O)O [Compound 132-2, (R)-phosphoric acid mono(2-amino-2-methyl-4-{3-trifluoromethyl-4-[3-(4-trifluoromethylphenyl)propoxy]phenyl}butyl)ester] | – | – | did not reduce the heart rate of the rat by 20% or more |
| NC(CO)(CCc1ccc(OCCCc2ccc(OC(F)(F)F)cc2)c(C(F)(F)F)c1)COP(=O)(O)O (stereo not drawn) [Compound 153-2, 2-amino-2-(phosphoryloxymethyl)-4-{4-[3-(4-trifluoromethoxyphenyl)propoxy]-3-trifluoromethylphenyl}butanol] | – | – | did not reduce the heart rate of the rat by 20% or more |
| NC(CO)(CCc1ccc(OCCCc2cccc(OC(F)(F)F)c2)c(C(F)(F)F)c1)COP(=O)(O)O (stereo not drawn) [Compound 158-2, 2-amino-2-(phosphoryloxymethyl)-4-{4-[3-(3-trifluoromethoxyphenyl)propoxy]-3-trifluoromethylphenyl}butanol] | – | – | did not reduce the heart rate of the rat by 20% or more |
| NC(CO)(CCc1ccc(OCCCc2ccc(C(F)(F)F)c(F)c2)c(C(F)(F)F)c1)COP(=O)(O)O (stereo not drawn) [Compound 168-2, 2-amino-4-{4-[3-(3-fluoro-4-trifluoromethylphenyl)propoxy]-3-trifluoromethylphenyl}-2-(phosphoryloxymethyl)butanol] | – | – | did not reduce the heart rate of the rat by 20% or more |
| CC[C@](N)(CO)CCc1ccc(OCCCc2ccc(Cl)c(Cl)c2)c(C(F)(F)F)c1.Cl [Compound 206-3, (R)-2-amino-4-{4-[3-(3,4-dichlorophenyl)propoxy]-3-trifluoromethylphenyl}-2-ethylbutanol hydrochloride] | 0.05 | 0.02 | – |
| CC(N)(CCc1ccc(OCCCc2ccc(Cl)c(Cl)c2)c(C(F)(F)F)c1)COP(=O)(O)O (stereo not drawn) [Compound 209-2, phosphoric acid mono(2-amino-4-{4-[3-(3,4-dichlorophenyl)propoxy]-3-trifluoromethylphenyl}-2-methylbutyl)ester] | – | – | did not reduce the heart rate of the rat by 20% or more |
| CC[C@](N)(CO)CCc1ccc(OCCCc2ccc(OC(F)(F)F)cc2)c(C(F)(F)F)c1.Cl [Compound 218-2, (R)-2-amino-2-ethyl-4-{4-[3-(4-trifluoromethoxyphenyl)propoxy]-3-trifluoromethylphenyl}butanol hydrochloride] | 0.03 | – | – |
| CC[C@](N)(CO)CCc1ccc(OCCCc2cccc(OC(F)(F)F)c2)c(C(F)(F)F)c1.Cl [Compound 220-2, (R)-2-amino-2-ethyl-4-{4-[3-(3-trifluoromethoxyphenyl)propoxy]-3-trifluoromethylphenyl}butanol hydrochloride] | 0.03 | – | – |
| CCC(N)(CCc1ccc(OCCCc2ccc(OC(F)(F)F)cc2)c(C(F)(F)F)c1)COP(=O)(O)O (stereo not drawn) [Compound 221-2, phosphoric acid mono(2-amino-2-ethyl-4-{4-[3-(4-trifluoromethoxyphenyl)propoxy]-3-trifluoromethylphenyl}butyl)ester] | – | – | did not reduce the heart rate of the rat by 20% or more |
| CCC(N)(CCc1ccc(OCCCc2cccc(OC(F)(F)F)c2)c(C(F)(F)F)c1)COP(=O)(O)O (stereo not drawn) [Compound 223-2, phosphoric acid mono(2-amino-2-ethyl-4-{4-[3-(3-trifluoromethoxyphenyl)propoxy]-3-trifluoromethylphenyl}butyl)ester] | – | – | did not reduce the heart rate of the rat by 20% or more |
| NC(/C=C/c1ccc(OCCCc2ccccc2)c(C(F)(F)F)c1)(CO)COP(=O)(O)O (stereo not drawn) [compound 192-2, (E)-2-amino-4-[4-(3-phenylpropoxy)-3-trifluoromethylphenyl]-2-(phosphoryloxymethyl)-3-butenol] | – | – | did not reduce the heart rate of the rat by 20% or more |
| NC(/C=C/c1ccc(OCCCc2ccccc2F)c(C(F)(F)F)c1)(CO)COP(=O)(O)O (stereo not drawn) [compound 193-2, (E)-2-amino-4-{4-[3-(2-fluorophenyl)propoxy]-3-trifluoromethylphenyl}-2-(phosphoryloxymethyl)-3-butenol] | – | – | did not reduce the heart rate of the rat by 20% or more |
